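Growth conditions: 96-well plates. Treatment: test compound, 48 hours, 5 concentrations. Analysis: linear interpolation between bracketing concentrations; unreached endpoints set to highest concentration. TGI: total growth inhibition.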
Experiments:
Assay in all cases: NCI tumour cell line growth inhibition, 48 h
[1] = test system: 786-0 renal
[2] = test system: A549 NSCLC
[3] = test system: BT-549 breast
[4] = test system: CAKI-1 renal
[5] = test system: CCRF-CEM leukemia
[6] = test system: COLO 205 colon
[7] = test system: HCC-2998 colon
[8] = test system: HCT-15 colon
[9] = test system: HL-60(TB) leukemia
[10] = test system: HOP-62 NSCLC
[11] = test system: HS 578T breast
[12] = test system: HT29 colon
[13] = test system: IGROV1 ovarian
[14] = test system: K-562 leukemia
[15] = test system: KM12 colon
[16] = test system: LOX IMVI melanoma
[17] = test system: M14 melanoma
[18] = test system: MALME-3M melanoma
[19] = test system: MCF7 breast
[20] = test system: MDA-MB-231 breast
[21] = test system: MDA-MB-435
[22] = test system: MDA-N
[23] = test system: MOLT-4 leukemia
[24] = test system: NCI-H226 lung
[25] = test system: NCI-H23 lung
[26] = test system: NCI-H460 lung
[27] = test system: NCI-H522 lung
[28] = test system: NCI/ADR-RES ovarian
[29] = test system: OVCAR-3 ovarian
[30] = test system: OVCAR-4 ovarian
[31] = test system: OVCAR-5 ovarian
[32] = test system: OVCAR-8 ovarian
[33] = test system: PC-3 prostate
[34] = test system: RPMI-8226 leukemia
[35] = test system: RXF 393 renal
[36] = test system: SF-295 CNS
[37] = test system: SF-539 CNS
[38] = test system: SK-MEL-2 melanoma
[39] = test system: SK-MEL-28 melanoma
[40] = test system: SK-MEL-5 melanoma
[41] = test system: SK-OV-3 ovarian
[42] = test system: SN12C renal
[43] = test system: SNB-19 CNS
[44] = test system: SNB-75 CNS
[45] = test system: SR leukemia
[46] = test system: SW-620 colon
[47] = test system: T-47D breast
[48] = test system: TK-10 renal
[49] = test system: U251 CNS
[50] = test system: UACC-257 melanoma
[51] = test system: UACC-62 melanoma
[52] = test system: UO-31 renal

Measured: TGI

Cc1ccc(S(=O)(=O)N/N=C2\C3CC4CC(C3)C2C4)cc1 (configuration not stated)
> 100 µM: [1] | [2] | [3] | [4] | [5] | [6] | [7] | [8] | [9] | [10] | [11] | [12] | [13] | [14] | [15] | [16] | [17] | [18] | [19] | [20] | [21] | [22] | [23] | [24] | [25] | [26] | [27] | [28] | [29] | [30] | [31] | [32] | [33] | [34] | [35] | [36] | [37] | [38] | [39] | [40] | [41] | [42] | [43] | [44] | [45] | [46] | [47] | [48] | [49] | [50] | [51] | [52]

From PubChem BioAssay (NCI)
